Test results taken from the supplement of paper PMC5908809.

Assays:
[1] = system: normal NK cells expanded with K562-aAPC; assay: drug sensitivity score (DSS) (DSS units); higher = more sensitive; extreme values may be limits of the assay; conditions: 72 h; IL-2 2.5 ng/mL
Procedure: (§1)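 Drug sensitivity and resistance testing on K562-aAPC-expanded normal NK cells: 5 concentrations (10-fold steps over a 10,000-fold range), 72 h at 37 °C, viability by CellTiter-Glo normalised to DMSO and benzethonium chloride controls; DSS from the fitted curve.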

[2] = system: normal NK cells expanded with K562-aAPC; assay: percent inhibition of viability; higher = more inhibition; conditions: 72 h, IL-2 2.5 ng/mL
Procedure: as §1

[3] = system: SNK-6 (IL-2 2.5 ng/mL); assay: drug sensitivity score (DSS) (DSS units); higher = more sensitive; extreme values may be limits of the assay; conditions: 72 h
[4] = system: normal primary NK cells, pool 3 (3 donors) (IL-2 2.5 ng/mL); assay: as above; conditions: 72 h
[5] = system: KAI3 (IL-2 2.5 ng/mL); assay: as above; conditions: 72 h
[6] = system: NK-YS (IL-2 2.5 ng/mL); assay: as above; conditions: 72 h
[7] = system: normal primary NK cells, pool 1 (3 donors) (IL-2 2.5 ng/mL); assay: as above; conditions: 72 h
[8] = system: NKL (IL-2 2.5 ng/mL); assay: as above; conditions: 72 h
[9] = system: IMC-1 (IL-2 20 ng/mL); assay: as above; conditions: 72 h
[10] = system: DERL-7 (IL-2 2.5 ng/mL); assay: as above; conditions: 72 h
[11] = system: YT (IL-2 2.5 ng/mL); assay: as above; conditions: 72 h
[12] = system: normal primary NK cells, pool 1 (3 donors), resting (IL-2 0 ng/mL); assay: as above; conditions: 72 h
[13] = system: NK-92 (IL-2 2.5 ng/mL); assay: as above; conditions: 72 h
[14] = system: normal primary NK cells, pool 2 (3 donors) (IL-2 2.5 ng/mL); assay: as above; conditions: 72 h
[15] = system: KHYG-1 (IL-2 2.5 ng/mL); assay: as above; conditions: 72 h
[16] = system: SNK-6 (IL-2 2.5 ng/mL); assay: percent inhibition of viability; higher = more inhibition; conditions: 72 h
[17] = system: normal primary NK cells, pool 3 (3 donors) (IL-2 2.5 ng/mL); assay: as above; conditions: 72 h
[18] = system: KAI3 (IL-2 2.5 ng/mL); assay: as above; conditions: 72 h
[19] = system: NK-YS (IL-2 2.5 ng/mL); assay: as above; conditions: 72 h
[20] = system: normal primary NK cells, pool 1 (3 donors) (IL-2 2.5 ng/mL); assay: as above; conditions: 72 h
[21] = system: NKL (IL-2 2.5 ng/mL); assay: as above; conditions: 72 h
[22] = system: IMC-1 (IL-2 20 ng/mL); assay: as above; conditions: 72 h
[23] = system: DERL-7 (IL-2 2.5 ng/mL); assay: as above; conditions: 72 h
[24] = system: YT (IL-2 2.5 ng/mL); assay: as above; conditions: 72 h
[25] = system: normal primary NK cells, pool 1 (3 donors), resting (IL-2 0 ng/mL); assay: as above; conditions: 72 h
[26] = system: NK-92 (IL-2 2.5 ng/mL); assay: as above; conditions: 72 h
[27] = system: normal primary NK cells, pool 2 (3 donors) (IL-2 2.5 ng/mL); assay: as above; conditions: 72 h
[28] = system: KHYG-1 (IL-2 2.5 ng/mL); assay: as above; conditions: 72 h

COc1cc(Nc2ncc(F)c(Nc3ccc4c(n3)NC(=O)C(C)(C)O4)n2)cc(OC)c1OC [Tamatinib] (max concentration tested 10000 nM)
Conditions | drug sensitivity score
[1] | 5
[3] | 4.09
[4] | 3.27
[5] | 11.7
[6] | 5.03
[7] | 1.62
[8] | 7.84
[9] | 2.27
[10] | 5.34
[11] | 5.49
[12] | 0
[13] | 6.83
[14] | 3.61
[15] | 9.92

percent inhibition of viability [%]
Conditions | 1 nM | 10 nM | 100 nM | 1000 nM | 10000 nM
[2] | 0.12 | 1.7 | 1.14 | 27.4 | 36.2
[16] | 2.85 | 9.06 | -0.26 | -7.25 | 83
[17] | -10.4 | -5.15 | -13.3 | 2.62 | 54.5
[18] | 4.14 | 8.73 | 12.3 | 52.5 | 82.4
[19] | -3.68 | -3.13 | -0.99 | 12.5 | 56.2
[20] | -10.3 | -6.76 | 7.45 | 9.38 | 25.4
[21] | -1.49 | -0.26 | 2.39 | 34.2 | 68.3
[22] | -4.81 | -0.95 | -11 | -15.5 | 56.1
[23] | -3.21 | -4.44 | -1.63 | 29.5 | 38.5
[24] | 2.46 | 0.67 | 2.31 | 5.93 | 82.7
[25] | -31.4 | -30.1 | -18.1 | -11 | -3.1
[26] | -17.2 | -0.02 | -13.7 | 11 | 90.4
[27] | -10 | -7.66 | -17.3 | 5.93 | 49.9
[28] | 1.54 | -0.18 | 6.88 | 36 | 99.6

COc1cccc2c1c(O)c(C(=O)N(C)c1ccc(C(F)(F)F)cc1)c(=O)n2C [Tasquinimod] (max concentration tested 10000 nM)
Conditions | drug sensitivity score
[1] | 0.52
[3] | 1.33
[4] | 0
[5] | 0.42
[6] | 0.88
[7] | 0
[8] | 0
[9] | 1.63
[10] | 0
[11] | 0.05
[12] | 0
[13] | 0.25
[14] | 0
[15] | 0.64

percent inhibition of viability [%]
Conditions | 1 nM | 10 nM | 100 nM | 1000 nM | 10000 nM
[2] | -7.07 | 0.32 | 1.21 | 7.82 | 14.8
[16] | -5.13 | 6.31 | 6.1 | 14.1 | 15.8
[17] | -20.6 | -6.75 | -1.92 | -3.86 | -2.57
[18] | -4.26 | 7.35 | 5.88 | 0.64 | 16.9
[19] | 0.96 | 4.34 | 12.7 | 5.52 | 18.5
[20] | 3.81 | -6.54 | 6.5 | -11.9 | 5.24
[21] | -7.64 | -0.44 | 4.18 | -3.6 | 2.35
[22] | -0.7 | -0.26 | 6.03 | 4.89 | 24.9
[23] | -3.57 | -2.07 | -7.69 | -10.8 | -11.1
[24] | -0.31 | 1.63 | 5.58 | -0.55 | 12.3
[25] | 8.18 | -8.58 | -1.08 | -15.9 | -8.64
[26] | -9.77 | 4.66 | 9.08 | 0.57 | 14.6
[27] | -8.15 | -6.65 | -1.09 | -7.24 | -2.69
[28] | -2.03 | 0.19 | 16.6 | 3.8 | 15.4

CO[C@H]1C[C@@H]2CC[C@@H](C)[C@@](O)(O2)C(=O)C(=O)N2CCCC[C@H]2C(=O)O[C@H]([C@H](C)C[C@@H]2CC[C@@H](OC(=O)C(C)(CO)CO)[C@H](OC)C2)CC(=O)[C@H](C)/C=C(\C)[C@@H](O)[C@@H](OC)C(=O)[C@H](C)C[C@H](C)/C=C/C=C/C=C/1C [Temsirolimus] (max concentration tested 100 nM)
Conditions | drug sensitivity score
[1] | 1.25
[3] | 17.2
[4] | 0.84
[5] | 14.2
[6] | 17.4
[7] | 0.28
[8] | 21.6
[9] | 0
[10] | 15.1
[11] | 14.4
[12] | 0.07
[13] | 7.04
[14] | 3.24
[15] | 13.4

percent inhibition of viability [%]
Conditions | 0.01 nM | 0.1 nM | 1 nM | 10 nM | 100 nM
[2] | 0.06 | 1.82 | 7.35 | 7.61 | 23.3
[16] | 4.31 | 14 | 45.6 | 56 | 55.2
[17] | -9.23 | -18.3 | 1.68 | 12.1 | 12.8
[18] | -1.9 | 13.1 | 35.1 | 48.4 | 54.7
[19] | -1.82 | 16.2 | 44.5 | 54.4 | 59
[20] | -5.13 | 4.99 | 6.83 | 10.7 | 11.2
[21] | 5.4 | 32.6 | 52 | 59.1 | 58.7
[22] | 1.04 | 2.24 | -25.1 | -30.5 | -23.9
[23] | 0.65 | 5.41 | 38.2 | 53.8 | 56.5
[24] | 0.8 | 5.67 | 35.9 | 50.6 | 55.3
[25] | -13.5 | -0.02 | 6.4 | 10.2 | 4.95
[26] | -7.3 | 7.2 | 12.8 | 33.5 | 36.9
[27] | -13.6 | -11.5 | 7.96 | 18.8 | 14.9
[28] | -0.71 | 3.41 | 21.7 | 58.9 | 48.8

COc1cc([C@@H]2c3cc4c(cc3[C@@H](O[C@@H]3O[C@@H]5CO[C@@H](c6cccs6)O[C@H]5[C@H](O)[C@H]3O)[C@H]3COC(=O)[C@H]23)OCO4)cc(OC)c1O [Teniposide] (max concentration tested 10000 nM)
Conditions | drug sensitivity score
[1] | 18.8
[3] | 28.5
[4] | 10.1
[5] | 29.9
[6] | 29.3
[7] | 14
[8] | 36.2
[9] | 32.6
[10] | 33.5
[11] | 22.1
[12] | 20.6
[13] | 25
[14] | 11
[15] | 30.9

percent inhibition of viability [%]
Conditions | 1 nM | 10 nM | 100 nM | 1000 nM | 10000 nM
[2] | -1.49 | 7.42 | 51.3 | 59.8 | 99.4
[16] | 5.23 | 16.8 | 78.2 | 95.8 | 94.7
[17] | -13.8 | -4.37 | 3.23 | 36.7 | 97
[18] | -5.63 | 32.8 | 80.1 | 75.3 | 92.2
[19] | 4.54 | 29.4 | 82.5 | 79.9 | 75.7
[20] | 2.23 | -5.23 | 11.2 | 66.3 | 96.6
[21] | 0.79 | 49.3 | 98.3 | 98.7 | 89.8
[22] | -1.21 | 18.8 | 95.9 | 99.6 | 99
[23] | 5.54 | 34.5 | 94.9 | 80.3 | 99.3
[24] | 0.75 | -4.25 | 36.1 | 95.3 | 91.5
[25] | -23.6 | -9.41 | 27.9 | 90.8 | 91.2
[26] | -21.1 | 0.94 | 59.8 | 99.7 | 90.3
[27] | -11.9 | -5.76 | 2.6 | 48.4 | 93.9
[28] | 1.47 | 13.1 | 91.5 | 102 | 94.4

S=P(N1CC1)(N1CC1)N1CC1 [Thio-TEPA] (max concentration tested 50000 nM)
Conditions | drug sensitivity score
[1] | 0
[3] | 1.69
[4] | 0
[5] | 8.32
[6] | 1.65
[7] | 0
[8] | 8.54
[9] | 0
[10] | 0
[11] | 0
[12] | 1.68
[13] | 5.84
[14] | 1.52
[15] | 0

percent inhibition of viability [%]
Conditions | 5 nM | 50 nM | 500 nM | 5000 nM | 50000 nM
[2] | -5.81 | -5.71 | -4.89 | 3.45 | 9
[16] | -0.04 | -12.4 | -4.8 | -5.86 | 41.2
[17] | -5.53 | 7.66 | 3.04 | 4.82 | 3.08
[18] | -3.61 | -4.29 | 12.8 | 35.4 | 69.6
[19] | -1.57 | -3.69 | 3 | 9.54 | 24.2
[20] | 0.27 | 11.7 | 6.98 | 8.81 | 2.16
[21] | -8.09 | 4.28 | 15.5 | 33.8 | 72.4
[22] | -2.71 | -4.91 | -3.42 | -4.6 | 8.77
[23] | 1.93 | 5.03 | -0.04 | 1.45 | 3.25
[24] | -4.88 | -5.74 | 1.43 | 6.47 | 8.31
[25] | -8.22 | 7.58 | 6.34 | 14.9 | 17.1
[26] | -3.47 | 8.15 | 14.3 | 25.1 | 37.1
[27] | -1.52 | 9.19 | 11.7 | 8.43 | 19.8
[28] | -7.42 | -4.16 | 1.44 | 6.58 | 8.07
